Source: US20100070184A1, “METHOD FOR D[…] HIV TO PROTEASE INHIBITOR TREATMENT” (MONOGRAM BIOSCIENCES, INC., priority 2006, published 2010)

Tested on: HIV-1 from the patient plasma sample
Test: PHENOSENSE HIV phenotypic assay, tipranavir IC50 fold change vs NL4-3 reference strain
Type: cell-based
Conditions: for MEAN tipranavir FC / MEDIAN tipranavir FC: 1411 patient samples
Method: In one embodiment, the phenotypic analysis is performed using PHENOSENSE™ (ViroLogic Inc., South San Francisco, Calif.). See Petropoulos et al., 2000, Antimicrob. Agents Chemother. 44:920-928; U.S. Pat. Nos. 5,837,464 and 6,242,187. PHENOSENSE™ is a phenotypic assay that achieves the benefits of phenotypic testing and overcomes the drawbacks of previous assays. Because the assay has been automated, PHENOSENSE™ offers higher throughput under controlled conditions. The result is an assay that accurately defines the susceptibility profile of a patient's HIV isolates to all currently available antiretroviral drugs, and delivers results directly to the physician within about 10 to about 15 days of sample receipt. PHENOSENSE™ is accurate and can obtain results with only one round of viral replication, thereby avoiding selection of subpopulations of virus. The results are quantitative, measuring varying degrees of drug susceptibility, and sensitive—the test can be performed on blood specimens with a viral load of about 500 copies/mL and can detect minority populations of some drug-resistant virus at concentrations of 10% or less of total viral population. Furthermore, the results are reproducible and can vary by less than about 1.4-2.5 fold, depending on the drug, in about 95% of the assays performed.
A resistance test vector (“RTV”) can then be constructed by incorporating the amplified viral gene sequences into a replication defective viral vector by using any method known in the art of incorporating gene sequences into a vector. In one embodiment, restrictions enzymes and conventional cloning methods are used. See Maniatis et al., 1989, Molecular Cloning: A Laboratory Manual, Cold Spring Harbor Laboratory, NY and Ausubel et al., 1989, Current Protocols in Molecular Biology, Greene Publishing Associates and Wiley Interscience, NY. In some embodiments, ApaI and PinAI restriction enzymes are used. Preferably, the replication defective viral vector is the indicator gene viral vector (“IGVV”). In some embodiments, the viral vector contains a means for detecting replication of the RTV. Preferably, the viral vector contains a luciferase expression cassette.
The assay can be performed by first co-transfecting host cells with RTV DNA and a plasmid that expresses the envelope proteins of another retrovirus, for example, amphotropic murine leukemia virus (MLV). Following transfection, virus particles can be harvested and used to infect fresh target cells. The completion of a single round of viral replication can be detected by the means for detecting replication contained in the vector. In one embodiment, the completion of a single round of viral replication results in the production of luciferase. Serial concentrations of anti-viral agents can be added at either the transfection step or the infection step.
Susceptibility to the anti-viral agent can be measured by comparing the replication of the vector in the presence and absence of the anti-viral agent. For example, susceptibility to the anti-viral agent can be measured by comparing the luciferase activity in the presence and absence of the anti-viral agent. Susceptible viruses would produce low levels of luciferase activity in the presence of anti-viral agents, whereas viruses with reduced susceptibility would produce higher levels of luciferase activity.
The phenotypic assay was conducted using the PHENOSENSE™ (Monogram Biosciences, Inc, South San Francisco, Calif.) HIV assay (Petropoulos et al., 2000, Antimicrob. Agents Chemother. 44:920-928; U.S. Pat. Nos. 5,837,464 and 6,242,187, and International Patent Application No. PCT/US06/05512). Plasma samples were collected from HIV-1-infected patients. IC50 values for tipranavir were obtained for the HIV-1 from the patient sample. This was compared to the IC50 for tipranavir against the NL4-3 (GenBank Accession No. AF324493) reference viral strain. […]

[1] = Kohlbrenner TPV mutation score 0
[2] = Kohlbrenner TPV mutation score 0, 4492 samples
[3] = Kohlbrenner TPV mutation score 1
[4] = Kohlbrenner TPV mutation score 1, 4492 samples
[5] = Kohlbrenner TPV mutation score 2
[6] = Kohlbrenner TPV mutation score 2, 4492 samples
[7] = Kohlbrenner TPV mutation score 3
[8] = Kohlbrenner TPV mutation score 3, 4492 samples
[9] = Kohlbrenner TPV mutation score 4
[10] = Kohlbrenner TPV mutation score 4, 4492 samples
[11] = Kohlbrenner TPV mutation score 5
[12] = Kohlbrenner TPV mutation score 5, 4492 samples
[13] = Kohlbrenner TPV mutation score 6
[14] = Kohlbrenner TPV mutation score 6, 4492 samples
[15] = Kohlbrenner TPV mutation score 7
[16] = Kohlbrenner TPV mutation score 7, 4492 samples
[17] = Kohlbrenner TPV mutation score 8-9
[18] = Kohlbrenner TPV mutation score 8, 4492 samples
[19] = Kohlbrenner TPV mutation score 9, 4492 samples
[20] = adjusted mutation score 3, training data with gag (n = 1916)
[21] = adjusted mutation score 3, validation data with gag (n = 1916)
[22] = adjusted mutation score 3.5, training data with gag (n = 1916)
[23] = adjusted mutation score 3.5, validation data with gag (n = 1916)
[24] = adjusted mutation score 4, training data with gag (n = 1916)
[25] = adjusted mutation score 4, validation data with gag (n = 1916)
[26] = adjusted mutation score 4.5, training data with gag (n = 1916)
[27] = adjusted mutation score 4.5, validation data with gag (n = 1916)
[28] = adjusted mutation score 5, training data with gag (n = 1916)
[29] = adjusted mutation score 5, validation data with gag (n = 1916)
[30] = adjusted mutation score 5.5, training data with gag (n = 1916)
[31] = adjusted mutation score 5.5, validation data with gag (n = 1916)
[32] = adjusted mutation score 6, training data with gag (n = 1916)
[33] = adjusted mutation score 6, validation data with gag (n = 1916)
[34] = adjusted mutation score 6.5, training data with gag (n = 1916)
[35] = adjusted mutation score 6.5, validation data with gag (n = 1916)
[36] = adjusted mutation score <3, training data with gag (n = 1916)
[37] = adjusted mutation score <3, validation data with gag (n = 1916)
[38] = adjusted mutation score >=7, training data with gag (n = 1916)
[39] = adjusted mutation score >=7, validation data with gag (n = 1916)
[40] = base mutation score 0, validation data (n = 2246)
[41] = base mutation score 1, validation data (n = 2246)
[42] = base mutation score 2, validation data (n = 2246)
[43] = base mutation score 3, validation data (n = 2246)
[44] = base mutation score 4, validation data (n = 2246)
[45] = base mutation score 5, validation data (n = 2246)
[46] = base mutation score 6, validation data (n = 2246)
[47] = base mutation score 7, validation data (n = 2246)
[48] = base mutation score 8, validation data (n = 2246)
[49] = base mutation score 9, validation data (n = 2246)
[50] = samples with 3 TPV mutations (Kohlbrenner score), 4492 samples

In the case of `CCC[C@@]1(CCc2ccccc2)CC(O)=C([C@H](CC)c2cccc(NS(=O)(=O)c3ccc(C(F)(F)F)cn3)c2)C(=O)O1` [TPV, tipranavir], the “MEAN tipranavir FC” value [1] is reported as 0.8, the “MEDIAN tipranavir FC” value [1] is reported as 0.7 and the “Mean FC” value [2] is reported as 0.8. For the same compound, the “Median FC” value [2] was 0.7, the “MEAN tipranavir FC” value [3] was 1.0 and the “MEDIAN tipranavir FC” value [3] was 0.8. The “Mean FC” value [4] was 1.1, the “Median FC” value [4] was 0.9 and the “MEAN tipranavir FC” value [5] was 1.5. The “MEDIAN tipranavir FC” value [5] was 1.1, the “Mean FC” value [6] was 1.6 and the “Median FC” value [6] was 1.1. The “MEAN tipranavir FC” value [7] was 3.1, the “MEDIAN tipranavir FC” value [7] was 1.6 and the “Mean FC” value [8] was 3.1. For the same compound, the “Median FC” value [8] was 1.7, the “MEAN tipranavir FC” value [9] was 6.1 and the “MEDIAN tipranavir FC” value [9] was 3.0. For the same compound, the “Mean FC” value [10] was 5.8, the “Median FC” value [10] was 2.9 and the “MEAN tipranavir FC” value [11] was 11. The “MEDIAN tipranavir FC” value [11] was 5.7, the “Mean FC” value [12] was 10 and the “Median FC” value [12] was 5.5. For the same compound, the “MEAN tipranavir FC” value [13] was 16, the “MEDIAN tipranavir FC” value [13] was 8.8 and the “Mean FC” value [14] was 17. The “Median FC” value [14] was 10.7, the “MEAN tipranavir FC” value [15] was 32 and the “MEDIAN tipranavir FC” value [15] was 12. The “Mean FC” value [16] was 24, the “Median FC” value [16] was 16 and the “MEAN tipranavir FC” value [17] was 44. For the same compound, the “MEDIAN tipranavir FC” value [17] was 24, the “Mean FC” value [18] was 30 and the “Median FC” value [18] was 31. For the same compound, the “Mean FC” value [19] was 42, the “Median FC” value [19] was 53 and the “mean TPV FC” value [20] was 2.3. For the same compound, the “median TPV FC” value [20] was 1.5, the “mean TPV FC” value [21] was 1.8 and the “median TPV FC” value [21] was 1.4. For the same compound, the “mean TPV FC” value [22] was 3.2, the “median TPV FC” value [22] was 1.5 and the “mean TPV FC” value [23] was 2.3. The “median TPV FC” value [23] was 1.5, the “mean TPV FC” value [24] was 2.5 and the “median TPV FC” value [24] was 2.0. The “mean TPV FC” value [25] was 2.6, the “median TPV FC” value [25] was 2.0 and the “mean TPV FC” value [26] was 3.1. For the same compound, the “median TPV FC” value [26] was 2.2, the “mean TPV FC” value [27] was 3.5 and the “median TPV FC” value [27] was 2.4. The “mean TPV FC” value [28] was 4.0, the “median TPV FC” value [28] was 2.8 and the “mean TPV FC” value [29] was 4.4. The “median TPV FC” value [29] was 2.8, the “mean TPV FC” value [30] was 5.1 and the “median TPV FC” value [30] was 2.4. For the same compound, the “mean TPV FC” value [31] was 5.2, the “median TPV FC” value [31] was 3.2 and the “mean TPV FC” value [32] was 7.2. The “median TPV FC” value [32] was 4.9, the “mean TPV FC” value [33] was 8.6 and the “median TPV FC” value [33] was 4.5. For the same compound, the “mean TPV FC” value [34] was 10.0, the “median TPV FC” value [34] was 6.3 and the “mean TPV FC” value [35] was 12.6. The “median TPV FC” value [35] was 7.4, the “mean TPV FC” value [36] was 1.1 and the “median TPV FC” value [36] was 0.9. The “mean TPV FC” value [37] was 1.1, the “median TPV FC” value [37] was 0.9 and the “mean TPV FC” value [38] was 19.7. For the same compound, the “median TPV FC” value [38] was 13.4, the “mean TPV FC” value [39] was 20.1 and the “median TPV FC” value [39] was 12.5. The “mean TPV FC” value [40] was 0.8, the “median TPV FC” value [40] was 0.7 and the “mean TPV FC” value [41] was 1.1. The “median TPV FC” value [41] was 0.9, the “mean TPV FC” value [42] was 1.7 and the “median TPV FC” value [42] was 1.2. For the same compound, the “mean TPV FC” value [43] was 3.4, the “median TPV FC” value [43] was 1.8 and the “mean TPV FC” value [44] was 6.4. The “median TPV FC” value [44] was 3.2, the “mean TPV FC” value [45] was 10.7 and the “median TPV FC” value [45] was 5.7. For the same compound, the “mean TPV FC” value [46] was 18, the “median TPV FC” value [46] was 11.7 and the “mean TPV FC” value [47] was 24. The “median TPV FC” value [47] was 19, the “mean TPV FC” value [48] was 31 and the “median TPV FC” value [48] was 33. For the same compound, the “mean TPV FC” value [49] was 41, the “median TPV FC” value [49] was 41 and the “samples with TPV FC greater than 2-fold” value [50] was 44%. The “samples with TPV FC greater than 4-fold” value [50] was 19%.
